# Experimental data: PMC7937321 (Genes and Environment, 2021)
# What was measured:
# [1] = Cytotoxicity in the TK6 assay (CE, RS, RSG, RTG); conditions: human; for viability at 24 h, 173.7 μg/mL: 173.70 μg/mL; for viability at 24 h, 277.9 μg/mL: 277.90 μg/mL; for viability at 4 h, 444.7 μg/mL: dose 444.70 μg/mL
# Procedure: (§1) Briefly, test substances were dissolved in an appropriate solvent (DMSO or ethanol) and then serially diluted to prepare final concentrations. […] The 4 h and 24 h treatments were conducted by shaking and static exposures, respectively. After treatment with test substances, cells were centrifuged (1000 rpm, 5 min), supernatants were removed, and cells were washed with a serum-free medium or Hank’s Balanced Salt Solution. After centrifugation (1000 rpm, 5 min) to remove the supernatant, cells (2 × 10^7 cells) were dispersed in an RPMI medium containing 10% serum, and cell concentration was measured. Treated cells were cultured at 37 °C with 5% CO2 condition and used for TK6 assays. At that time, to calculate the cloning efficiency (CE) (Eq. 1), the cells were cultured in a 96-well microplate at a concentration of about 1.6 cells/well for 2 weeks.
# (§2) CE, the cell colony formation rate, was calculated using Eq. 1 according to the Poisson distribution equation. EW was the number of wells without colonies, and TW was the total number of wells. N was the average number of cells per well (N = 1.6). 1 CE=−lnEW/TW/N
# (§3) Additionally, CE was adjusted by the following calculation (Eq. 2) due to cell loss when exposure caused cytotoxicity. “The number of cells at the end of the treatment” was the number of cells obtained after centrifugation at the end of the treatment in the above-described exposure treatment of the test substance. The “cell number at the start of treatment” was 2 × 10^7. 2 AdjustedCE=CE×number of cellsatendof treatment/number of cellsatthe start of treatment
# (§4) CE0 seeding, in which cells were seeded immediately after treatment, and CE3 seeding, in which cells were seeded 3 days after treatment, to examine cell viability in the TK6 assay described below. The relative cell viability RS0 (%) just after the treatment with the test substance was calculated from CE0, following Eq. 3. The survival rate of the negative control group was defined as 100%. 3 RS0%=adjusted CE0 of treatment culture/adjusted CE0 of solvent control×100
# (§5) The TK6 assay is conducted between 20 and 10% RS0 as a maximum dose if cytotoxicity is observed. […] When the main TK6 assay was difficult to conduct under the condition of RS0 values from 20 to 10%, the test was conducted between 20 and 10% relative total growth (RTG), described later, as a maximum dose.
# (§6) Besides RS0, relative suspension growth (RSG) and RTG as other cytotoxicity indices (Eq. 4) were used. When cells were cultured for 3 days after treatment with the test substance, suspension cell growth ratio 1 (SG1) was the growth ratio from day 0 to day 1 (cell concentration on day 1/cell concentration on day 0). The suspension cell growth ratio 2 (SG2) was the growth ratio from day 1 to day 2 (cell concentration on day 2/cell concentration on day 1). The RSG value was calculated by dividing the total SG value of the untreated group for 3 days by the total SG value of the treated group for the same 3 days (Eq. 4).
# (§7) On the third day of culture, CE3 plates for determining plating efficiency and mutant frequency (MF) plates for mutation detection were prepared. CE3 plates were seeded in 96-well microplates at a concentration of about 1.6 cells/well.
# TK6 cells = test: Cytotoxicity in the TK6 assay (CE, RS, RSG, RTG); conditions: for RS: graph data
# Procedure: as §1, §2, §3, §4, §5, §6, §7
# [2] = TK6 cells with rat liver S9 mix, CE0 (%), cell viability on Day 0, Short treatment, +S9 mix
# [3] = TK6 cells with rat liver S9 mix, CE3 (%), cell viability on Day 3, Short treatment, +S9 mix
# [4] = TK6 cells without S9 mix, CE0 (%), cell viability on Day 0, 24 h treatment, -S9 mix
# [5] = TK6 cells without S9 mix, CE0 (%), cell viability on Day 0, Short treatment, -S9 mix
# [6] = TK6 cells without S9 mix, CE3 (%), cell viability on Day 3, 24 h treatment, -S9 mix
# [7] = TK6 cells without S9 mix, CE3 (%), cell viability on Day 3, Short treatment, -S9 mix
# [8] = 24 h treatment, -S9 mix, 173.70 μg/mL
# [9] = 24 h treatment, -S9 mix, 277.90 μg/mL
# [10] = 24 h treatment, -S9 mix, 444.70 μg/mL
# [11] = 24 h treatment, -S9 mix, 711.5 μg/mL
# [12] = 24 h treatment, -S9 mix, 1138.4 μg/mL
# [13] = 24 h treatment, -S9 mix, 1821.4 μg/mL
# [14] = Short treatment, +S9 mix, dose 173.7 μg/mL
# [15] = Short treatment, +S9 mix, dose 277.9 μg/mL
# [16] = Short treatment, +S9 mix, dose 445 μg/mL
# [17] = Short treatment, +S9 mix, dose 712 μg/mL
# [18] = Short treatment, +S9 mix, dose 1138 μg/mL
# [19] = Short treatment, +S9 mix, dose 1821 μg/mL
# [20] = Short treatment, -S9 mix, dose 173.70 μg/mL
# [21] = Short treatment, -S9 mix, dose 277.90 μg/mL
# [22] = Short treatment, -S9 mix, dose 444.70 μg/mL
# [23] = Short treatment, -S9 mix, dose 711.5 μg/mL
# [24] = Short treatment, -S9 mix, dose 1138.4 μg/mL
# [25] = Short treatment, -S9 mix, dose 1821.4 μg/mL
compound,measurement,setting,value
Nc1cc([N+](=O)[O-])ccc1C(=O)O [4-Nitroanthranilic acid],"viability at 4 h, 173.7 μg/mL","[1]; TK6 cells with rat liver S9 mix, CE0 (%), cell viability on Day 0, Short treatment, +S9 mix, dose 173.7 μg/mL",84.1%
same,"viability at 4 h, 277.9 μg/mL","[1]; TK6 cells with rat liver S9 mix, CE0 (%), cell viability on Day 0, Short treatment, +S9 mix, dose 277.9 μg/mL",98%
same,"viability at 4 h, 445 μg/mL",[1]; [2],72.7%
same,"viability at 4 h, 712 μg/mL",[1]; [2],79.3%
same,"viability at 4 h, 1138 μg/mL",[1]; [2],108%
same,"viability at 4 h, 1821 μg/mL",[1]; [2],3.3%
same,"viability at 4 h, 173.7 μg/mL","[1]; TK6 cells with rat liver S9 mix, CE3 (%), cell viability on Day 3, Short treatment, +S9 mix, dose 173.7 μg/mL",70.6%
same,"viability at 4 h, 277.9 μg/mL","[1]; TK6 cells with rat liver S9 mix, CE3 (%), cell viability on Day 3, Short treatment, +S9 mix, dose 277.9 μg/mL",66.7%
same,"viability at 4 h, 445 μg/mL",[1]; [3],81.6%
same,"viability at 4 h, 712 μg/mL",[1]; [3],98%
same,"viability at 4 h, 1138 μg/mL",[1]; [3],84.1%
same,"viability at 4 h, 1821 μg/mL",[1]; [3],44.6%
same,"viability at 24 h, 173.7 μg/mL",[1]; [4],47.4%
same,"viability at 24 h, 277.9 μg/mL",[1]; [4],23.4%
same,"viability at 24 h, 444.7 μg/mL","[1]; TK6 cells without S9 mix, CE0 (%), cell viability on Day 0, 24 h treatment, -S9 mix, 444.70 μg/mL",42%
same,"viability at 24 h, 711.5 μg/mL",[1]; [4],42%
same,"viability at 24 h, 1138.4 μg/mL","[1]; TK6 cells without S9 mix, CE0 (%), cell viability on Day 0, 24 h treatment, -S9 mix, 1138.4 μg/mL",30.4%
same,"viability at 24 h, 1821.4 μg/mL",[1]; [4],24.4%
same,"viability at 4 h, 173.7 μg/mL","[1]; TK6 cells without S9 mix, CE0 (%), cell viability on Day 0, Short treatment, -S9 mix, dose 173.70 μg/mL",120%
same,"viability at 4 h, 277.9 μg/mL","[1]; TK6 cells without S9 mix, CE0 (%), cell viability on Day 0, Short treatment, -S9 mix, dose 277.90 μg/mL",77%
same,"viability at 4 h, 444.7 μg/mL",[1]; [5],77%
same,"viability at 4 h, 711.5 μg/mL",[1]; [5],74.8%
same,"viability at 4 h, 1138.4 μg/mL",[1]; [5],46%
same,"viability at 4 h, 1821.4 μg/mL",[1]; [5],29.4%
same,"viability at 24 h, 173.7 μg/mL",[1]; [6],84.1%
same,"viability at 24 h, 277.9 μg/mL",[1]; [6],84.1%
same,"viability at 24 h, 711.5 μg/mL",[1]; [6],68.7%
same,"viability at 24 h, 1821.4 μg/mL",[1]; [6],43.3%
same,"viability at 4 h, 173.7 μg/mL","[1]; TK6 cells without S9 mix, CE3 (%), cell viability on Day 3, Short treatment, -S9 mix, dose 173.70 μg/mL",89.3%
same,"viability at 4 h, 277.9 μg/mL","[1]; TK6 cells without S9 mix, CE3 (%), cell viability on Day 3, Short treatment, -S9 mix, dose 277.90 μg/mL",77%
same,"viability at 4 h, 444.7 μg/mL",[1]; [7],105%
same,"viability at 4 h, 711.5 μg/mL",[1]; [7],101%
same,"viability at 4 h, 1138.4 μg/mL",[1]; [7],95%
same,"viability at 4 h, 1821.4 μg/mL",[1]; [7],105%
same,cytotoxicity,"TK6 cells; 1138 μg/mL, short-term without metabolic activation",More than 50%
same,cytotoxicity,"TK6 cells; 1821 μg/mL, long-term treatment",More than 80%
same,cytotoxicity,"TK6 cells; 1821 μg/mL, short-term with metabolic activation",approximately 100%
same,cytotoxicity,"TK6 cells; 1821 μg/mL, short-term without metabolic activation",More than 50%
same,Adjusted CE0(%),TK6 cells; [8],111.3%
same,RS0 (%),TK6 cells; [8],133.0%
same,RSG,TK6 cells; [8],1.273
same,Adjusted CE0(%),TK6 cells; [9],40.4%
same,RS0 (%),TK6 cells; [9],48.3%
same,RSG,TK6 cells; [9],0.978
same,Adjusted CE0(%),TK6 cells; [10],71.5%
same,RS0 (%),TK6 cells; [10],85.4%
same,RSG,TK6 cells; [10],1.146
same,Adjusted CE0(%),TK6 cells; [11],49.4%
same,RS0 (%),TK6 cells; [11],59.0%
same,RSG,TK6 cells; [11],1.081
same,Adjusted CE0(%),TK6 cells; [12],26.6%
same,RS0 (%),TK6 cells; [12],31.8%
same,RSG,TK6 cells; [12],0.835
same,Adjusted CE0(%),TK6 cells; [13],14.0%
same,RS0 (%),TK6 cells; [13],16.7%
same,RSG,TK6 cells; [13],0.892
same,Adjusted CE0(%),TK6 cells; [14],84.1%
same,RS0 (%),TK6 cells; [14],71.1%
same,RSG,TK6 cells; [14],1.078
same,Adjusted CE0(%),TK6 cells; [15],107.8%
same,RS0 (%),TK6 cells; [15],91.1%
same,RSG,TK6 cells; [15],0.902
same,Adjusted CE0(%),TK6 cells; [16],58.9%
same,RS0 (%),TK6 cells; [16],49.8%
same,RSG,TK6 cells; [16],0.653
same,Adjusted CE0(%),TK6 cells; [17],79.3%
same,RS0 (%),TK6 cells; [17],67.0%
same,RSG,TK6 cells; [17],0.824
same,Adjusted CE0(%),TK6 cells; [18],96.3%
same,RS0 (%),TK6 cells; [18],81.4%
same,RSG,TK6 cells; [18],0.854
same,Adjusted CE0(%),TK6 cells; [19],3.0%
same,RS0 (%),TK6 cells; [19],2.6%
same,RSG,TK6 cells; [19],0.036
same,Adjusted CE0(%),TK6 cells; [20],132.4%
same,RS0 (%),TK6 cells; [20],186.4%
same,RSG,TK6 cells; [20],1.135
same,Adjusted CE0(%),TK6 cells; [21],61.6%
same,RS0 (%),TK6 cells; [21],86.8%
same,RSG,TK6 cells; [21],0.893
same,Adjusted CE0(%),TK6 cells; [22],84.7%
same,RS0 (%),TK6 cells; [22],119.3%
same,RSG,TK6 cells; [22],0.880
same,Adjusted CE0(%),TK6 cells; [23],60.6%
same,RS0 (%),TK6 cells; [23],85.4%
same,RSG,TK6 cells; [23],0.786
same,Adjusted CE0(%),TK6 cells; [24],33.1%
same,RS0 (%),TK6 cells; [24],46.6%
same,RSG,TK6 cells; [24],0.678
same,Adjusted CE0(%),TK6 cells; [25],22.9%
same,RS0 (%),TK6 cells; [25],32.3%
same,RSG,TK6 cells; [25],0.302
same,CE3,"TK6 cells; as fraction in mutation frequency table, 24 h treatment, -S9 mix, 173.70 μg/mL",0.841
same,CE3,"TK6 cells; as fraction in mutation frequency table, 24 h treatment, -S9 mix, 277.90 μg/mL",0.841
same,CE3,"TK6 cells; as fraction in mutation frequency table, 24 h treatment, -S9 mix, 444.70 μg/mL",0.793
same,CE3,"TK6 cells; as fraction in mutation frequency table, 24 h treatment, -S9 mix, 711.5 μg/mL",0.687
same,CE3,"TK6 cells; as fraction in mutation frequency table, 24 h treatment, -S9 mix, 1138.4 μg/mL",0.950
same,CE3,"TK6 cells; as fraction in mutation frequency table, 24 h treatment, -S9 mix, 1821.4 μg/mL",0.433
same,CE3,"TK6 cells; as fraction, mutation frequency table, Short treatment, +S9 mix, dose 173.7 μg/mL",0.706
same,CE3,"TK6 cells; as fraction, mutation frequency table, Short treatment, +S9 mix, dose 277.9 μg/mL",0.667
same,CE3,"TK6 cells; as fraction, mutation frequency table, Short treatment, +S9 mix, dose 445 μg/mL",0.816
same,CE3,"TK6 cells; as fraction, mutation frequency table, Short treatment, +S9 mix, dose 712 μg/mL",0.980
same,CE3,"TK6 cells; as fraction, mutation frequency table, Short treatment, +S9 mix, dose 1138 μg/mL",0.841
same,CE3,"TK6 cells; as fraction, mutation frequency table, Short treatment, +S9 mix, dose 1821 μg/mL",0.446
same,CE3,"TK6 cells; as fraction, mutation frequency table, Short treatment, -S9 mix, dose 173.70 μg/mL",0.893
same,CE3,"TK6 cells; as fraction, mutation frequency table, Short treatment, -S9 mix, dose 277.90 μg/mL",0.770
same,CE3,"TK6 cells; as fraction, mutation frequency table, Short treatment, -S9 mix, dose 444.70 μg/mL",1.046
same,CE3,"TK6 cells; as fraction, mutation frequency table, Short treatment, -S9 mix, dose 711.5 μg/mL",1.012
same,CE3,"TK6 cells; as fraction, mutation frequency table, Short treatment, -S9 mix, dose 1138.4 μg/mL",0.950
same,CE3,"TK6 cells; as fraction, mutation frequency table, Short treatment, -S9 mix, dose 1821.4 μg/mL",1.046
same,RS,"TK6 cells; 24 h, -S9 mix, 173.70 μg/mL",133.0
same,RS,"TK6 cells; 24 h, -S9 mix, 277.90 μg/mL",48.3
same,RS,"TK6 cells; 24 h, -S9 mix, 444.70 μg/mL",85.4
same,RS,"TK6 cells; 24 h, -S9 mix, 711.5 μg/mL",59.0
same,RS,"TK6 cells; 24 h, -S9 mix, 1138.4 μg/mL",31.8
same,RS,"TK6 cells; 24 h, -S9 mix, 1821.4 μg/mL",16.7
same,RS,TK6 cells; [14],71.1
same,RS,TK6 cells; [15],91.1
same,RS,TK6 cells; [16],49.8
same,RS,TK6 cells; [17],67.0
same,RS,TK6 cells; [18],81.4
same,RS,TK6 cells; [19],2.6
same,RS,TK6 cells; [20],186.4
same,RS,TK6 cells; [21],86.8
same,RS,TK6 cells; [22],119.3
same,RS,TK6 cells; [23],85.4
same,RS,TK6 cells; [24],46.6
same,RS,TK6 cells; [25],32.3
